Results reported in US20030153623A1, “Solid preparation containing sparingly soluble NSAIDs” (Yamanouchi Pharmaceutical Co., Ltd., priority 1998, published 2003).

What was measured:
Format in all cases: physicochemical
[1] = Dissolution test, puddle method, first solution pH 1.2, various chemicals (Test Example 5); settings: raw material of the chemical; dissolved for 5 minutes; first solution (pH 1.2) 500 ml; 50 rpm; a dose of each chemical
Protocol: Samples 8-1 and 8-9, and raw materials of various chemicals as the control, were examined by the puddle method in an dissolution test according to the Japanese Pharmacopoeia, and the amount of ibuprofen (μg/ml) dissolved for 5 minutes in the test was determined. The test solution used was the first solution (pH 1.2) in a disintegration test in the Japanese Pharmacopoeia, the amount of the dissolution medium was 500 ml, and the number of puddle revolutions was 50 rpm. Each sample contains a dose of each chemical.

[2] = Dissolution test, puddle method, first solution pH 1.2 (Test Example 4)
Protocol: Samples 7-1 and 7-9, and the raw ibuprofen powder as the control, were examined by the puddle method in an dissolution test according to the Japanese Pharmacopoeia, and the amount of ibuprofen (μg/ml) dissolved for 5 minutes in the test was determined. The test solution used was a first solution (pH 1.2) in a disintegration test in the Japanese Pharmacopoeia, the amount of the dissolutuion medium was 500 ml, and the number of puddle revolutions was 50 rpm. The content of ibuprofen in every sample was 150 mg.

[3] = Dissolution test, puddle method, Japanese Pharmacopoeia, water (Test Example 1); settings: ibuprofen dissolved for 5 minutes; water 500 ml; 100 rpm; ibuprofen content 150 mg
Protocol: Each sample was tested by the puddle method in an dissolution test according to the Japanese Pharmacopoeia, and the amount of ibuprofen (μg/ml) dissolved for 5 minutes in the test was determined. Water was used as the test solution, the amount of the dissolution medium was 500 ml, and the number of puddle revolutions was 100 rpm. The raw ibuprofen material, Samples 5-1 to 5-7, and Sample 6 were examined respectively in the test. The content of ibuprofen in every sample was 150 mg.

SMILES | Dissolved amount, Control [1] [µg/mL] | Solubility in first solution (pH 1.2), in words ([2]; first solution (pH 1.2) of the disintegration test) | Dissolved amount ([2]; ibuprofen dissolved for 5 minutes, first solution (pH 1.2) 500 ml, 50 rpm, ibuprofen content 150 mg) [µg/mL] | Dissolved amount [3] [µg/mL]
COc1ccc2c(c1)c(CC(=O)O)c(C)n2C(=O)c1ccc(Cl)cc1 [Indomethacin] | 0.09 | – | – | –
CC(C)Cc1ccc(C(C)C(=O)O)cc1 (stereo not shown) [Ibuprofen, ibuprofen] | 0.00 | not dissolved | 0.00 | 5.7
CC(C(=O)O)c1ccc(CC2CCCC2=O)cc1 (stereo not shown) [Loxoprofen] | 101.73 | – | – | –
CC(C(=O)O)c1ccc2c(c1)Cc1cccnc1O2 (stereo not shown) [Pranoprofen] | 17.81 | – | – | –

Next, values leading:

Dissolved amount, Control [1] [µg/mL] | Solubility in first solution (pH 1.2), in words ([2]; first solution (pH 1.2) of the disintegration test) | Dissolved amount ([2]; ibuprofen dissolved for 5 minutes, first solution (pH 1.2) 500 ml, 50 rpm, ibuprofen content 150 mg) [µg/mL] | Dissolved amount [3] [µg/mL] | SMILES
1.57 | – | – | – | CC(C(=O)O)c1cccc(C(=O)c2ccccc2)c1 (stereo not shown) [Ketoprofen]
0.22 | – | – | – | CC(C(=O)O)c1ccc(-c2ccccc2)c(F)c1 (stereo not shown) [Flurbiprofen]
11.47 | – | – | – | CC(C(=O)O)c1cccc(Oc2ccccc2)c1 (stereo not shown) [Phenoprofen]
